# Test results published in PubChem BioAssay (NCI).
#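 In this assay, cells in 96-well plates receive the compound at five concentrations for 48 hours. Endpoints are linearly interpolated between the surrounding concentrations. At the TGI there is no net growth.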
# What was measured:
# Assay in all cases: growth of human tumour cells (NCI), 48 h
# [1] = test system: HOP-62 NSCLC
# [2] = test system: A549 NSCLC
# [3] = test system: UACC-62 melanoma
# [4] = test system: U251 CNS
# [5] = test system: SK-MEL-2 melanoma
# [6] = test system: HT29 colon
# [7] = test system: SK-MEL-28 melanoma
# [8] = test system: SK-MEL-5 melanoma
# [9] = test system: EKVX NSCLC
# [10] = test system: K-562 leukemia
# [11] = test system: TK-10 renal
# [12] = test system: RXF 393 renal
# [13] = test system: NCI-H522 lung
# [14] = test system: MDA-MB-231 breast
# [15] = test system: MDA-N
# [16] = test system: CAKI-1 renal
# [17] = test system: OVCAR-3 ovarian
# [18] = test system: SF-295 CNS
# [19] = test system: UACC-257 melanoma
# [20] = test system: A498 renal
# [21] = test system: ACHN renal
# [22] = test system: NCI/ADR-RES ovarian
# [23] = test system: SN12C renal
# [24] = test system: OVCAR-5 ovarian
# [25] = test system: PC-3 prostate
# [26] = test system: MCF7 breast
# [27] = test system: 786-0 renal
# [28] = test system: SF-539 CNS
# [29] = test system: M14 melanoma
# [30] = test system: RPMI-8226 leukemia
# [31] = test system: HL-60(TB) leukemia
# [32] = test system: SF-268 CNS
# [33] = test system: SW-620 colon
# [34] = test system: BT-549 breast
# [35] = test system: HS 578T breast
# [36] = test system: SNB-75 CNS
# [37] = test system: SK-OV-3 ovarian
# [38] = test system: KM12 colon
# [39] = test system: NCI-H460 lung
# [40] = test system: UO-31 renal
# [41] = test system: HOP-92 NSCLC
# [42] = test system: LOX IMVI melanoma
# [43] = test system: HCT-15 colon
# [44] = test system: OVCAR-8 ovarian
# [45] = test system: MDA-MB-435
# [46] = test system: HCT-116 colon
# [47] = test system: IGROV1 ovarian
# [48] = test system: NCI-H23 lung
# [49] = test system: MALME-3M melanoma
# [50] = test system: NCI-H226 lung
# [51] = test system: T-47D breast
# [52] = test system: OVCAR-4 ovarian
# [53] = test system: SNB-19 CNS
# [54] = test system: HCC-2998 colon
# [55] = test system: DU-145 prostate
# [56] = test system: COLO 205 colon
# [57] = test system: CCRF-CEM leukemia
# [58] = test system: SR leukemia
# [59] = test system: MOLT-4 leukemia
structure (smiles),measurement,setting,value
O=C(Cc1nc2ccc(C(=O)c3ccccc3)cc2[nH]c1=O)C(=O)Nc1ccc(Br)cc1,TGI,[1],> 100 µM
same,TGI,[2],> 100 µM
same,TGI,[3],> 100 µM
same,TGI,[4],> 100 µM
same,TGI,[5],> 100 µM
same,TGI,[6],> 100 µM
same,TGI,[7],> 100 µM
same,TGI,[8],> 100 µM
same,TGI,[9],> 100 µM
same,TGI,[10],> 100 µM
same,TGI,[11],> 100 µM
same,TGI,[12],> 100 µM
same,TGI,[13],> 100 µM
same,TGI,[14],> 100 µM
same,TGI,[15],> 100 µM
same,TGI,[16],> 100 µM
same,TGI,[17],> 100 µM
same,TGI,[18],> 100 µM
same,TGI,[19],> 100 µM
same,TGI,[20],> 100 µM
same,TGI,[21],> 100 µM
same,TGI,[22],> 100 µM
same,TGI,[23],> 100 µM
same,TGI,[24],> 100 µM
same,TGI,[25],> 100 µM
same,TGI,[26],> 100 µM
same,TGI,[27],> 100 µM
same,TGI,[28],> 100 µM
same,TGI,[29],> 100 µM
same,TGI,[30],> 100 µM
same,TGI,[31],> 100 µM
same,TGI,[32],> 100 µM
same,TGI,[33],> 100 µM
same,TGI,[34],> 100 µM
same,TGI,[35],> 100 µM
same,TGI,[36],> 100 µM
same,TGI,[37],> 100 µM
same,TGI,[38],> 100 µM
same,TGI,[39],> 100 µM
same,TGI,[40],> 100 µM
same,TGI,[41],> 100 µM
same,TGI,[42],> 100 µM
same,TGI,[43],> 100 µM
same,TGI,[44],> 100 µM
same,TGI,[45],> 100 µM
same,TGI,[46],> 100 µM
same,TGI,[47],> 100 µM
same,TGI,[48],> 100 µM
same,TGI,[49],> 100 µM
same,TGI,[50],> 100 µM
same,TGI,[51],> 100 µM
same,TGI,[52],> 100 µM
CC12CC(c3ccccc3O1)C(C(=O)Nc1ccc(F)cc1)C(=O)N2 (centres undefined),TGI,[1],> 100 µM
same,TGI,[53],> 100 µM
same,TGI,[2],> 100 µM
same,TGI,[54],> 100 µM
same,TGI,[3],> 100 µM
same,TGI,[4],> 100 µM
same,TGI,[5],> 100 µM
same,TGI,[6],> 100 µM
same,TGI,[7],> 100 µM
same,TGI,[8],> 100 µM
same,TGI,[9],> 100 µM
same,TGI,[10],> 100 µM
same,TGI,[13],> 100 µM
same,TGI,[15],> 100 µM
same,TGI,[16],> 100 µM
same,TGI,[17],> 100 µM
same,TGI,[19],> 100 µM
same,TGI,[55],> 100 µM
same,TGI,[20],> 100 µM
same,TGI,[21],> 100 µM
same,TGI,[22],> 100 µM
same,TGI,[24],> 100 µM
same,TGI,[25],> 100 µM
same,TGI,[26],> 100 µM
same,TGI,[27],> 100 µM
same,TGI,[28],> 100 µM
same,TGI,[29],> 100 µM
same,TGI,[30],> 100 µM
same,TGI,[31],> 100 µM
same,TGI,[32],> 100 µM
same,TGI,[56],> 100 µM
same,TGI,[57],> 100 µM
same,TGI,[33],> 100 µM
same,TGI,[34],> 100 µM
same,TGI,[35],> 100 µM
same,TGI,[37],> 100 µM
same,TGI,[38],> 100 µM
same,TGI,[39],> 100 µM
same,TGI,[40],> 100 µM
same,TGI,[42],> 100 µM
same,TGI,[43],> 100 µM
same,TGI,[58],> 100 µM
same,TGI,[59],76.5 µM
same,TGI,[44],> 100 µM
same,TGI,[45],> 100 µM
same,TGI,[46],> 100 µM
same,TGI,[47],> 100 µM
same,TGI,[48],> 100 µM
same,TGI,[49],> 100 µM
same,TGI,[51],> 100 µM
same,TGI,[52],> 100 µM
O=C1CC(=O)N(c2ccccc2)N1/C(=C/c1ccccc1)c1ccccc1,TGI,[1],54.5 µM
same,TGI,[53],43.6 µM
same,TGI,[2],> 100 µM
same,TGI,[54],37.3 µM
same,TGI,[3],37.3 µM
same,TGI,[4],27.7 µM
same,TGI,[5],69 µM
same,TGI,[6],44.2 µM
same,TGI,[7],26 µM
same,TGI,[8],28.2 µM
same,TGI,[9],> 100 µM
same,TGI,[10],> 100 µM
same,TGI,[11],48.6 µM
same,TGI,[12],36.5 µM
same,TGI,[14],30 µM
same,TGI,[15],34.3 µM
same,TGI,[16],33.7 µM
same,TGI,[17],57.1 µM
same,TGI,[18],35.6 µM
same,TGI,[19],59.2 µM
same,TGI,[55],82.6 µM
same,TGI,[21],89.5 µM
same,TGI,[22],61.5 µM
same,TGI,[23],44.8 µM
same,TGI,[24],> 100 µM
same,TGI,[25],47.7 µM
same,TGI,[26],57.3 µM
same,TGI,[29],46.6 µM
same,TGI,[30],34.5 µM
same,TGI,[32],36.3 µM
same,TGI,[56],36.6 µM
same,TGI,[57],3.57 µM
same,TGI,[33],37.7 µM
same,TGI,[34],50.2 µM
same,TGI,[35],45.4 µM
same,TGI,[36],83.2 µM
same,TGI,[37],76.5 µM
same,TGI,[38],66.5 µM
same,TGI,[39],39 µM
same,TGI,[40],29.2 µM
same,TGI,[41],31.3 µM
same,TGI,[42],3.06 µM
same,TGI,[58],40.9 µM
same,TGI,[59],6.54 µM
same,TGI,[44],45.3 µM
same,TGI,[45],36.5 µM
same,TGI,[46],32 µM
same,TGI,[47],43.9 µM
same,TGI,[48],65.4 µM
same,TGI,[50],73.5 µM
same,TGI,[51],67.8 µM
same,TGI,[52],60.5 µM
c1ccc([P+](CCNCCNCC[P+](c2ccccc2)(c2ccccc2)c2ccccc2)(c2ccccc2)c2ccccc2)cc1,TGI,[1],> 100 µM
same,TGI,[53],> 100 µM
same,TGI,[2],> 100 µM
same,TGI,[54],> 100 µM
same,TGI,[3],> 100 µM
same,TGI,[4],> 100 µM
same,TGI,[5],> 100 µM
same,TGI,[6],> 100 µM
same,TGI,[7],> 100 µM
same,TGI,[8],> 100 µM
same,TGI,[9],> 100 µM
same,TGI,[11],> 100 µM
same,TGI,[12],> 100 µM
same,TGI,[14],> 100 µM
same,TGI,[15],> 100 µM
same,TGI,[17],> 100 µM
same,TGI,[18],> 100 µM
same,TGI,[19],> 100 µM
same,TGI,[55],> 100 µM
same,TGI,[20],> 100 µM
same,TGI,[21],> 100 µM
same,TGI,[22],> 100 µM
same,TGI,[23],> 100 µM
same,TGI,[24],> 100 µM
same,TGI,[26],> 100 µM
same,TGI,[27],> 100 µM
same,TGI,[28],> 100 µM
same,TGI,[29],> 100 µM
same,TGI,[30],> 100 µM
same,TGI,[32],> 100 µM
same,TGI,[56],> 100 µM
same,TGI,[33],> 100 µM
same,TGI,[34],> 100 µM
same,TGI,[35],> 100 µM
same,TGI,[36],> 100 µM
same,TGI,[37],> 100 µM
same,TGI,[38],> 100 µM
same,TGI,[39],> 100 µM
same,TGI,[40],> 100 µM
same,TGI,[43],> 100 µM
same,TGI,[59],> 100 µM
same,TGI,[44],> 100 µM
same,TGI,[45],> 100 µM
same,TGI,[46],> 100 µM
same,TGI,[47],> 100 µM
same,TGI,[48],> 100 µM
same,TGI,[50],> 100 µM
same,TGI,[51],> 100 µM
same,TGI,[52],> 100 µM
